Read-outs that look alike come from different tables or passages of the source.

In data set [1] the test system is PHH 2D sandwich cultures. As to conditions: cited from earlier work.
The subject of data set [2] is clinical DILI in man. As to conditions: cited from earlier work.
In data set [3] the test system is PHH micropatterned cocultures with murine embryonic fibroblasts. The conditions noted are these: cited from earlier work.
For data set [4] the following is noted: ref DrugBank and Prescribers' Digital Reference database; cited from earlier work.
Data set [5] relates to primary human hepatocytes (PHH) 3D spheroids.
For data set [6] the following is noted: therapeutic total cmax; ref PMID; cited from earlier work.
The subject of data set [7] is PHH spheroids (hanging-drop). The conditions noted are these: PHH hanging-drop spheroids, 100x Cmax; ref Proctor 2017; cited from earlier work.
Where [8] appears, read: PHH 2D sandwich cultures, 100x Cmax, ref Xu 2008.
The mark [9] stands for this setting: clinical DILI classification in man (POS/NEG).
Where [10] appears, read: clinical DILI classification used in this study, Supplementary Table 2, ref Chen et al., 2011, Guo et al., 2005, O'Brien et al., 2006, Sakatis et al., 2012, Suzuki et al., 2010, Xu et al., 2008.
The mark [11] stands for this setting: clinical DILI classification, Supplementary Table 1, ref Chen et al., 2011, Guo et al., 2005, O'Brien et al., 2006, Sakatis et al., 2012, Suzuki et al., 2010, Xu et al., 2008.
[12] abbreviates: micropatterned cocultures, 100x Cmax, ref Khetani 2013.
Where [13] appears, read: FDA drug labeling DILI concern, ref Chen et al., 2011.
The mark [14] stands for this setting: FDA drug labeling DILI score, ref Chen et al., 2011.
[15] abbreviates: clinical DILI classification, ref Xu et al. (2008).
Setting [16] is: reported pattern of liver damage, Supplementary Table 2, ref literature.

As for `CNCCc1ccccn1` [Betahistine], the “2Dsw (Xu 2008) 100x” value in data set [1] (setting [8]) is reported as “Negative”. The DILI in vivo result in data set [2] (setting [9]) and in data set [2] (setting [11]) was “POS” each time. Moreover, the Classified as entry in data set [2] (setting [10]) is reported as “POS”. Further, the “MPCC (Khetani 2013) 100x” value in data set [3] (setting [12]) is on record as “Negative”. For the same molecule, the “Extent of hepatic metabolism” value in data set [4] is “Moderate”. Further, the “Chemically defined spheroids (this study) 20x” value (from here on “Chemically defined spheroids”) in data set [5] is reported as “Negative”. In data set [6], the highest concentration (Cmax) was 0.0037 µM.

On to `O=C1CC2(CCCC2)CC(=O)N1CCCCN1CCN(c2ncccn2)CC1` [Buspirone], for which the “2Dsw (Xu 2008) 100x” value in data set [1] (setting [8]) is given as “Negative”. Moreover, the “MPCC (Khetani 2013) 100x” value in data set [3] (setting [12]) is reported as “Negative”. Besides, in data set [5], the “Chemically defined spheroids” value is “Negative” and the “hepatotoxicity evaluation in CD-spheroids” value was “not hepatotoxic”. Besides, the “Hanging-drop spheroids (Proctor 2017) 100x” value (shortened to “Hanging-drop spheroids”) in data set [7] is recorded as “Negative”.

For `O=C(O)Cc1ccccc1Nc1c(Cl)cccc1Cl` [Diclofenac], the “2Dsw (Xu 2008) 100x” value in data set [1] (setting [8]) was “Positive”. Besides, the “MPCC (Khetani 2013) 100x” value in data set [3] (setting [12]) is listed as “Positive”. Also, the “Chemically defined spheroids” value in data set [5] is given as “Positive”. The “Hanging-drop spheroids” value in data set [7] is listed as “Positive”.

As to `CCN(CC)CC(=O)Nc1c(C)cccc1C` [Lidocaine], the “2Dsw (Xu 2008) 100x” value in data set [1] (setting [8]) was “Negative”. In addition, in data set [3] (setting [12]), the “MPCC (Khetani 2013) 100x” value is “Positive”.

With `Cc1cccc(Nc2ccccc2C(=O)O)c1C` [Mefenamic Acid], the “2Dsw (Xu 2008) 100x” value in data set [1] (setting [8]) is listed as “Positive”. In addition, in data set [2] (in vivo), the Classified as entry is listed as “POS”, the “Clinical DILI class (panel heading of Figure 4)” value (shortened to “Clinical DILI class”) is given as “Severe DILI”, the DILI in vivo result is “POS” and the “FDA (0-8)” value is on record as 8. For the same molecule, in data set [2] (in vivo), the “Sakatis et al. (2012)” value is listed as “Hepatotoxic”, the “Type of DILI” value is given as “Hepatocellular injury” and the “Xu et al. (2008)” value was “Positive”. In data set [3] (setting [12]), the “MPCC (Khetani 2013) 100x” value was “Positive”. For the same molecule, the “Extent of hepatic metabolism” value in data set [4] is “Extensive”. Further, the “Chemically defined spheroids” value in data set [5] is on record as “Positive”. For the same molecule, in data set [6], the Cmax was 26.9 µM.

On to `CNCCC=C1c2ccccc2CCc2ccccc21` [Nortriptyline], for which the “2Dsw (Xu 2008) 100x” value in data set [1] (setting [8]) is listed as “Negative”. Also, in data set [2] (setting [13]), the “FDA (Severity)” value is on record as “most DILI concern”. For the same molecule, in data set [2] (setting [14]), the “FDA (0-8)” value is listed as 8. Also, the DILI in vivo entry in data set [2] (setting [9]) and in data set [2] (setting [11]) was “POS” each time. Also, the Classified as entry in data set [2] (setting [10]) is “POS”. The “Xu et al. (2008)” value in data set [2] (setting [15]) is recorded as “Positive”. Further, the “Type of DILI” value in data set [2] (setting [16]) is recorded as “Hepatocellular injury”. Besides, the “MPCC (Khetani 2013) 100x” value in data set [3] (setting [12]) is “Positive”. The “Extent of hepatic metabolism” value in data set [4] is “Extensive”. In data set [5], the “Chemically defined spheroids” value was “Positive”. Moreover, the peak concentration (Cmax) in data set [6] is 1.5 µM.

For `CN1C(C(=O)Nc2ccccn2)=C(O)c2ccccc2S1(=O)=O` [Piroxicam], the “2Dsw (Xu 2008) 100x” value in data set [1] (setting [8]) is “Negative”. For the same molecule, in data set [2] (in vivo), the Classified as result is reported as “POS”, the “Clinical DILI class” value is given as “High DILI concern”, the DILI in vivo result is listed as “POS” and the “FDA (0-8)” value is recorded as 3. For the same molecule, in data set [2] (in vivo), the “FDA (Severity)” value is reported as “less DILI concern”, the “Guo et al. (2005)” value is 2, the “O'Brien et al. (2003)” value was “Severely” and the “Sakatis et al. (2012)” value is “Hepatotoxic”. Also, in data set [2] (in vivo), the “Suzuki et al. (2010)” value is recorded as 1; the “Type of DILI” value was “Hepatocellular injury, Cholestatic injury or Mixed hepatitis”; the “Xu et al. (2008)” value is recorded as “Positive”. In data set [3] (setting [12]), the “MPCC (Khetani 2013) 100x” value is on record as “Negative”. Further, the “Extent of hepatic metabolism” value in data set [4] is on record as “Extensive”. For the same molecule, the “Chemically defined spheroids” value in data set [5] is on record as “Negative”. The Cmax in data set [6] was 5.13 µM.

Consider `CC(=O)[C@H]1CC[C@H]2[C@@H]3CCC4=CC(=O)CC[C@]4(C)[C@H]3CC[C@]12C` [Progesterone], for which the “2Dsw (Xu 2008) 100x” value in data set [1] (setting [8]) is “Negative”. In addition, in data set [2] (in vivo), the Classified as entry is reported as “NEG”, the “Clinical DILI class” value is on record as “DILI negative”, the DILI in vivo entry is “NEG” and the “FDA (0-8)” value is 2. Besides, in data set [2] (in vivo), the “Sakatis et al. (2012)” value is listed as “non-hepatotixic”, the “Suzuki et al. (2010)” value is 1, the “Type of DILI” value is reported as “Non-hepatotoxic” and the “Xu et al. (2008)” value is recorded as “Positive”. For the same molecule, in data set [3] (setting [12]), the “MPCC (Khetani 2013) 100x” value is “Negative”. Also, the “Chemically defined spheroids” value in data set [5] was “Negative”. In addition, the maximum concentration (Cmax) in data set [6] is 0.193 µM.

For the molecule `C=C[C@H]1C[N@@]2CC[C@H]1C[C@H]2[C@H](O)c1ccnc2ccc(OC)cc12` [Quinine], the “2Dsw (Xu 2008) 100x” value in data set [1] is “Positive”. For the same molecule, the “MPCC (Khetani 2013) 100x” value in data set [3] was “Positive”. In addition, in data set [5], the “Chemically defined spheroids” value was “Positive”. The maximum concentration (Cmax) in data set [6] was 9.25 µM.

Regarding `Cc1cn([C@H]2C=C[C@@H](CO)O2)c(=O)[nH]c1=O` [Stavudine], the “2Dsw (Xu 2008) 100x” value in data set [1] (setting [8]) was “Negative”. Further, the “Suzuki et al. (2010)” value in data set [2] (DILI classification score, ref Suzuki et al. (2010)) was 2. Also, the “FDA (Severity)” value in data set [2] (setting [13]) is on record as “most DILI concern”. Further, in data set [2] (setting [14]), the “FDA (0-8)” value is given as 8. For the same molecule, the DILI in vivo result in data set [2] (setting [9]) and in data set [2] (setting [11]) was “POS” in each case. Moreover, the Classified as result in data set [2] (setting [10]) is listed as “POS”. Moreover, the “Xu et al. (2008)” value in data set [2] (setting [15]) is recorded as “Positive”. Further, the “O'Brien et al. (2003)” value in data set [2] (clinical hepatotoxicity classification, ref O'Brien et al. (2003)) is reported as “Severely”. Moreover, in data set [2] (clinical hepatotoxicity classification, ref Sakatis et al. (2012)), the “Sakatis et al. (2012)” value is given as “Hepatotoxic”. In addition, in data set [2] (setting [16]), the “Type of DILI” value is “Cholestatic injury or Mixed hepatitis”. In data set [4], the “Extent of hepatic metabolism” value is listed as “Minimal”. Moreover, the “Chemically defined spheroids” value in data set [5] is “Negative”. Also, the peak concentration (Cmax) in data set [6] is 3.46 µM. Moreover, in data set [7], the “Hanging-drop spheroids” value was “Negative”.

For the molecule `O=c1n(CCCN2CCN(c3cccc(Cl)c3)CC2)nc2ccccn12` [Trazodone], in data set [1] (setting [8]), the “2Dsw (Xu 2008) 100x” value is “Positive”. Further, in data set [2] (in vivo), the Classified as result is on record as “POS”, the “Clinical DILI class” value was “High DILI concern”, the DILI in vivo entry is “POS” and the “FDA (0-8)” value is reported as 5. In data set [2] (in vivo), the “FDA (Severity)” value was “less DILI concern”; the “Type of DILI” value is listed as “Hepatocellular injury, Cholestatic injury or Mixed hepatitis”; the “Xu et al. (2008)” value is reported as “Positive”. Besides, the “MPCC (Khetani 2013) 100x” value in data set [3] (setting [12]) is on record as “Positive”. Moreover, in data set [4], the “Extent of hepatic metabolism” value is given as “Extensive”. Further, in data set [5], the “Chemically defined spheroids” value was “Positive”. The maximum concentration (Cmax) in data set [6] was 5.1 µM.

Consider `CC(c1cc2ccccc2s1)N(O)C(N)=O` (centres unmarked) [Zileuton], for which the “hepatotoxicity detection in 2D sandwich cultures of PHH” value in data set [1] (100× cmax, 24 h, high content imaging, ref Xu et al., 2008) is “flagged as hepatotoxic”. Moreover, the “2Dsw (Xu 2008) 100x” value in data set [1] (setting [8]) was “Positive”. Besides, the “reactive oxygen species levels in 2D sandwich cultures of PHH” value in data set [1] (ref Xu et al., 2008) was “only slight increases in reactive oxygen species levels”. Also, in data set [2] (in vivo), the Classified as entry was “POS”, the “Clinical DILI class” value is given as “High DILI concern”, the DILI in vivo result is recorded as “POS” and the “FDA (0-8)” value is listed as 5. In data set [2] (in vivo), the “FDA (Severity)” value is reported as “most DILI concern”, the “O'Brien et al. (2003)” value is given as “Severely”, the “Sakatis et al. (2012)” value was “Hepatotoxic” and the “Type of DILI” value is given as “Hepatocellular injury”. Also, the “Xu et al. (2008)” value in data set [2] (in vivo) is on record as “Positive”. The “Extent of hepatic metabolism” value in data set [4] is “Extensive”. Besides, in data set [5], the “Chemically defined spheroids” value was “Negative” and the “hepatotoxicity evaluation in CD-spheroids” value is “predicted to be DILI negative”. Also, the highest concentration (Cmax) in data set [6] was 13.1 µM. The “Hanging-drop spheroids” value in data set [7] is on record as “Negative”.

Broadly, the Cmax is the highest concentration seen after dosing.

The values above are taken from PMC5974779, “Prediction of Drug-Induced Hepatotoxicity Using Long-Term Stable Primary Hepatic 3D Spheroid Cultures in Chemically Defined Conditions” (Toxicological Sciences, 2018).
